From ChEMBL document CHEMBL5465560, “Selectivity Literature for EUbOPEN Chemogenomic Library” (2024)

Tests used:
[1] = target: T1, Serine/threonine-protein kinase D1 (Homo sapiens) (UniProt Q15139); details: at 10 µM
T1 sequence (whole entry): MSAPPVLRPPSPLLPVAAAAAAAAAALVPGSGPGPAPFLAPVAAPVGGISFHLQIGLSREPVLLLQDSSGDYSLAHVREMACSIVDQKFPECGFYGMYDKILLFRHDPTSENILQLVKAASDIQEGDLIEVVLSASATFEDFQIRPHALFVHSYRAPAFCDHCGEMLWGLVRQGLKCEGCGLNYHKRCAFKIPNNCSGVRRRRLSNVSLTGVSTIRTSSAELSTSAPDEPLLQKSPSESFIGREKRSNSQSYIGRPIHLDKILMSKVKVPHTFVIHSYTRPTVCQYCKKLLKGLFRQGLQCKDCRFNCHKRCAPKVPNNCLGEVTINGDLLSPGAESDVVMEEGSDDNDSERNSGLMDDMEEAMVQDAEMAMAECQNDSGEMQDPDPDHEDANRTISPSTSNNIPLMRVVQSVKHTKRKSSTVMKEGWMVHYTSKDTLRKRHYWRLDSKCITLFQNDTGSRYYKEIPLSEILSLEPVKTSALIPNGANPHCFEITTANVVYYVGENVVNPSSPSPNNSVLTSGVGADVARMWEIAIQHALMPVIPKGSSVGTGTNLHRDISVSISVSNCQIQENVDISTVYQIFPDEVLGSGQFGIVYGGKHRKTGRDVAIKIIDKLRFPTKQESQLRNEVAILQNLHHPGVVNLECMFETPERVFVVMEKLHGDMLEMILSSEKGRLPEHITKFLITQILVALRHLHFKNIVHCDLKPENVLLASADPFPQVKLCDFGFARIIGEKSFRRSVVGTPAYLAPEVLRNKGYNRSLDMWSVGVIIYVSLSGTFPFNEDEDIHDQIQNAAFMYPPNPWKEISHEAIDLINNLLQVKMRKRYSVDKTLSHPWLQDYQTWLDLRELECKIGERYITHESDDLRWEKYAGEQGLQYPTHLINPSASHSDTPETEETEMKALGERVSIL

[2] = target: Rho-associated protein kinase 2 (Homo sapiens, UniProt O75116); assay: Selectivity interaction (Millipore kinase profiler) EUB0000124b ROCK2; details: at 10 µM
[3] = target: T2, Mitogen-activated protein kinase kinase kinase 13 (Homo sapiens) (UniProt O43283); assay: Selectivity interaction (KinomeScan (DiscoverX)) EUB0001049a MAP3K13; details: at 1 µM
T2 sequence (whole entry): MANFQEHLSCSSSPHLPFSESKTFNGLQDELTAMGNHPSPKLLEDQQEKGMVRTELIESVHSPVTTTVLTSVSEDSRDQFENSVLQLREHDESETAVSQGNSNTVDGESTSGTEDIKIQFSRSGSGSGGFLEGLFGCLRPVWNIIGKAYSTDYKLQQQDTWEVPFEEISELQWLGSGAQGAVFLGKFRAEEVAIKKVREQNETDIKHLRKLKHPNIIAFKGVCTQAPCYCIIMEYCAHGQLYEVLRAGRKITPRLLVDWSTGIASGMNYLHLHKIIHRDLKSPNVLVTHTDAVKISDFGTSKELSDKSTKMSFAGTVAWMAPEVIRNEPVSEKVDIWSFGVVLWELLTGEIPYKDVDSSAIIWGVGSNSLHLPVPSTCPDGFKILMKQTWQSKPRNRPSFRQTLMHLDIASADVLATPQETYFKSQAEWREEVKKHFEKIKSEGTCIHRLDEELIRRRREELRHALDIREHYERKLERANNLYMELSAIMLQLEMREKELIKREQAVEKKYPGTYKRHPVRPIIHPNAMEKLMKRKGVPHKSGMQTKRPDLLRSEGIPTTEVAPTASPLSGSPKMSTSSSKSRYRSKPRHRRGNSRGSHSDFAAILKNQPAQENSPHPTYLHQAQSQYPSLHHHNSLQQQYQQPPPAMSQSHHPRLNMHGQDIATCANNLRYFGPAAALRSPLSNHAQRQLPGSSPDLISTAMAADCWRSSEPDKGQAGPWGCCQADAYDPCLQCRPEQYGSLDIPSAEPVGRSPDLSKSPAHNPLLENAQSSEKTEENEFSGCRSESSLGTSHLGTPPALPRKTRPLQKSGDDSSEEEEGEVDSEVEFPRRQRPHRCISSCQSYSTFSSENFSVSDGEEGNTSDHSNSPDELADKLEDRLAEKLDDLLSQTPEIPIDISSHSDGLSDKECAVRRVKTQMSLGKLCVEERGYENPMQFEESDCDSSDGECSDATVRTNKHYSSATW

[4] = target: Motilin receptor (Homo sapiens, UniProt O43193); assay: Selectivity interaction (Motilin receptor binding assay, human recombinant ) EUB0000877a MLNR
[5] = system: RAF proto-oncogene serine/threonine-protein kinase (Homo sapiens), P04049 [Y340D,Y341D]; assay: Selectivity interaction (Kinase panel (Z-LYTE Assay)) EUB0001632a RAF1; details: at 10 µM
[6] = target: Mitogen-activated protein kinase kinase kinase 10 (Homo sapiens) (UniProt Q02779); assay: Selectivity interaction (KinomeScan (DiscoverX)) EUB0000229b MAP3K10; details: at 10 µM
[7] = target: Proto-oncogene tyrosine-protein kinase Src (Homo sapiens, UniProt P12931); assay: Selectivity interaction (KinomeScan (DiscoverX)) EUB0001079a SRC; details: at 1 µM
[8] = target: 5'-AMP-activated protein kinase catalytic subunit alpha-2 (Homo sapiens) (UniProt P54646); assay: Selectivity interaction (KinomeScan (DiscoverX)) EUB0001079a PRKAA2; details: at 1 µM
[9] = target: Glycogen synthase kinase-3 alpha (Homo sapiens, UniProt P49840); assay: Selectivity interaction (ProQinase) EUB0000171b GSK3A
[10] = target: Homeodomain-interacting protein kinase 1 (Homo sapiens, UniProt Q86Z02); assay: Selectivity interaction (KinomeScan (DiscoverX)) EUB0000618a HIPK1; details: at 10 µM
[11] = target: Cyclin-dependent kinase 2 (Homo sapiens, UniProt P24941); assay: Selectivity interaction (KinomeScan (DiscoverX)) EUB0000618a CDK2; details: at 10 µM
[12] = target: Casein kinase I isoform delta (Homo sapiens, UniProt P48730); assay: Selectivity interaction (SelectScreen profiling (Invitrogen)) EUB0000607a CSNK1D; details: at 2 µM
[13] = target: Vascular endothelial growth factor receptor 3 (Homo sapiens, UniProt P35916); assay: Selectivity interaction (SelectScreen profiling (Invitrogen)) EUB0000607a FLT4; details: at 2 µM
[14] = target: Protein-tyrosine kinase 6 (Homo sapiens, UniProt Q13882); assay: Selectivity interaction (KinomeScan (DiscoverX)) EUB0000666a PTK6; details: at 10 µM
[15] = target: Mitogen-activated protein kinase 6 (Homo sapiens) (UniProt Q16659); assay: Selectivity interaction (KinomeScan (DiscoverX)) EUB0000666a MAPK6; details: at 10 µM
[16] = target: Macrophage colony-stimulating factor 1 receptor (Homo sapiens) (UniProt P07333); assay: Selectivity interaction (KinomeScan (DiscoverX)) EUB0000666a CSF1R; details: at 10 µM

Sequence of Glycogen synthase kinase-3 alpha (P49840 2-483 limits assumed): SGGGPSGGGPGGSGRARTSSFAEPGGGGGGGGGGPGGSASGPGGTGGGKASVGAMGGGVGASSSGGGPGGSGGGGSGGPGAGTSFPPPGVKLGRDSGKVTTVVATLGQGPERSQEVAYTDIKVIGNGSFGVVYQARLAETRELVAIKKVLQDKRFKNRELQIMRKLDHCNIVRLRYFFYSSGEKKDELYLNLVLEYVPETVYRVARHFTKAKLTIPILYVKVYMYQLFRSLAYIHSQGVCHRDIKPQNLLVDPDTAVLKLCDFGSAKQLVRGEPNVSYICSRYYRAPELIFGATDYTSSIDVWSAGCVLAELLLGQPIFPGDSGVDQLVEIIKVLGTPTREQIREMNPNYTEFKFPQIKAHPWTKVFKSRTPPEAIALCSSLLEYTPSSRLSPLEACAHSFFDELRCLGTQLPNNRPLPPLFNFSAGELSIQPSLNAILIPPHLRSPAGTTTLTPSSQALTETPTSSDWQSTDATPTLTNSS
Sequence of Homeodomain-interacting protein kinase 1 (Q86Z02 whole entry, looked up): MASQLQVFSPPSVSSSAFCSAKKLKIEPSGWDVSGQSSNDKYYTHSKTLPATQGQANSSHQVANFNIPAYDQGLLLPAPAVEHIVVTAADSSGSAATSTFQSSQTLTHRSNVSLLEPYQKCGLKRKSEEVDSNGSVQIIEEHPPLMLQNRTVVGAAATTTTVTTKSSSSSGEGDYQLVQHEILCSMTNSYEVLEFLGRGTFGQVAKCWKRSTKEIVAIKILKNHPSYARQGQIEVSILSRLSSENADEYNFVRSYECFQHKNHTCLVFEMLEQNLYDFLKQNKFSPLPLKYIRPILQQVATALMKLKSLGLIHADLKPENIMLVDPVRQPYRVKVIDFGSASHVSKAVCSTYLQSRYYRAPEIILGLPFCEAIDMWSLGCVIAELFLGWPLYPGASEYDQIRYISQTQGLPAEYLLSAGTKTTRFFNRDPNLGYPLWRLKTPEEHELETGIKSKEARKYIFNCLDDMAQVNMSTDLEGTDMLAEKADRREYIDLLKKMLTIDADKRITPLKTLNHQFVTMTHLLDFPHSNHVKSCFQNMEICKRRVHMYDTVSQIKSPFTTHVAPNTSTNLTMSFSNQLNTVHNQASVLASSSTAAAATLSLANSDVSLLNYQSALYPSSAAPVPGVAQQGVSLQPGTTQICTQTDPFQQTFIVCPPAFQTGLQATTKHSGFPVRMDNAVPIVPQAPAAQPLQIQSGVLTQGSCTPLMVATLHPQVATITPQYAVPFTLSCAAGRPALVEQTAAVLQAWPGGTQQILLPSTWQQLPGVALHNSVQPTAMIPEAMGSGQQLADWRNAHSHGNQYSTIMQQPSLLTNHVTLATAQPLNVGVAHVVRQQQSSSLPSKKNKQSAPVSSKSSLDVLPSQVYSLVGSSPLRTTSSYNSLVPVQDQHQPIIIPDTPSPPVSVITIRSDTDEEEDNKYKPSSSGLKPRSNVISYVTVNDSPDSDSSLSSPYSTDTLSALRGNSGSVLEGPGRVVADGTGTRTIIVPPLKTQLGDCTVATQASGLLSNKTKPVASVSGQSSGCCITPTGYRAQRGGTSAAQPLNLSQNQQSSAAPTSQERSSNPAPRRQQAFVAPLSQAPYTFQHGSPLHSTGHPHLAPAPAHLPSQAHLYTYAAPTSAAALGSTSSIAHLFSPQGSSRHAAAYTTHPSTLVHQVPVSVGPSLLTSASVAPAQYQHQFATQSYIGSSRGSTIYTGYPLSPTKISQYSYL
Sequence of Casein kinase I isoform delta (P48730 whole entry, looked up, canonical isoform): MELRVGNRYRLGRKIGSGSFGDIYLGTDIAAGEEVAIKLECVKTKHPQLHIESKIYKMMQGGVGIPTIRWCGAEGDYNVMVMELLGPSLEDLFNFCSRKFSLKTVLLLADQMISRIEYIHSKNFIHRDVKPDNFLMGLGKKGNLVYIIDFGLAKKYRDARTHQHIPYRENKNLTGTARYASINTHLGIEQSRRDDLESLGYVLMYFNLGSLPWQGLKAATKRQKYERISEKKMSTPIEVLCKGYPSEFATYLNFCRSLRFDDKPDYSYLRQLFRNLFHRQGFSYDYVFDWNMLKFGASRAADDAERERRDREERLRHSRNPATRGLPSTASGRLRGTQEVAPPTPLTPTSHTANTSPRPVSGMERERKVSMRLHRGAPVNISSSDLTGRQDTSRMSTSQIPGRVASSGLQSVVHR
Sequence of RAF proto-oncogene serine/threonine-protein kinase (Homo sapiens), P04049 [Y340D,Y341D] (P04049 whole entry Y340D/Y341D): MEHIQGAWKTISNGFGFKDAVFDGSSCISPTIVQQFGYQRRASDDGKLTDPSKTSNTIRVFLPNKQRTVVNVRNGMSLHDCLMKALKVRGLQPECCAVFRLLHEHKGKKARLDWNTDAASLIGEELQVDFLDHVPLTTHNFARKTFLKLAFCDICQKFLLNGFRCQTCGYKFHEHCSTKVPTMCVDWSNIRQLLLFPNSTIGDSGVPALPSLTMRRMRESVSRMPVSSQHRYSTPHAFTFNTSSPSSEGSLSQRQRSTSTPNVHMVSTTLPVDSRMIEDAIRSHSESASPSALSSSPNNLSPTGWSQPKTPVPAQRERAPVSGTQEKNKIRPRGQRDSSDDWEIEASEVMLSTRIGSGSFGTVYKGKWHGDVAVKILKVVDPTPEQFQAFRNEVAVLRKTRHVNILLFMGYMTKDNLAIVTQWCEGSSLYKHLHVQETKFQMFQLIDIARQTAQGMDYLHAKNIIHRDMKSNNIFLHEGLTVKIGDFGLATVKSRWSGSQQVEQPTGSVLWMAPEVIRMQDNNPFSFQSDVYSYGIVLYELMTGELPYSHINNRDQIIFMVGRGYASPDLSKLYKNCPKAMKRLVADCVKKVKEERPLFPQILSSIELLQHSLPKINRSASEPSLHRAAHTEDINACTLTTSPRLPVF
Sequence of Mitogen-activated protein kinase kinase kinase 10 (Homo sapiens) (Q02779 whole entry, looked up): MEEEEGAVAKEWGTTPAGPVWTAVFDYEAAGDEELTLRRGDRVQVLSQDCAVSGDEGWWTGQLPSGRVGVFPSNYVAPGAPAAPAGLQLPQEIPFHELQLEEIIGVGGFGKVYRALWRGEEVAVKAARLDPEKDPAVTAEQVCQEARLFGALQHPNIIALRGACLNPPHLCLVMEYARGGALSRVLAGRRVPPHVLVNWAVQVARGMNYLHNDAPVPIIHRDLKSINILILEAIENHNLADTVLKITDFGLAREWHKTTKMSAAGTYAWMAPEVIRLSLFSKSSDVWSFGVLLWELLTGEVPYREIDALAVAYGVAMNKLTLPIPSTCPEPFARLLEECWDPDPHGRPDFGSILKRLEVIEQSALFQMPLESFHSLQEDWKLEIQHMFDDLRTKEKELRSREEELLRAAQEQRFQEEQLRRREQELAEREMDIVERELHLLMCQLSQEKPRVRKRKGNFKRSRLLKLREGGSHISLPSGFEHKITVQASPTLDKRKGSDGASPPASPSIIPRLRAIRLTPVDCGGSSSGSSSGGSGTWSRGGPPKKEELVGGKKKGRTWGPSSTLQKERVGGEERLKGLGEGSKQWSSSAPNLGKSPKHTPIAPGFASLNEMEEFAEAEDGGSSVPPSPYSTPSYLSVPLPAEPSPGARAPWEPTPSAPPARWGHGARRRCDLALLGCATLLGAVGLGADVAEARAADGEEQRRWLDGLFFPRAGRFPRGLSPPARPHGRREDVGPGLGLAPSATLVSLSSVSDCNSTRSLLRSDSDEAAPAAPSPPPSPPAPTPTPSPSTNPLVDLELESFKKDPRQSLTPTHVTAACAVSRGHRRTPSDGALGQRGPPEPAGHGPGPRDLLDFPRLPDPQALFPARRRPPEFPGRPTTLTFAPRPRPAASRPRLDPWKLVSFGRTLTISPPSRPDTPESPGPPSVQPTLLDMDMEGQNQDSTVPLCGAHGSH
Sequence of Motilin receptor (O43193 whole entry): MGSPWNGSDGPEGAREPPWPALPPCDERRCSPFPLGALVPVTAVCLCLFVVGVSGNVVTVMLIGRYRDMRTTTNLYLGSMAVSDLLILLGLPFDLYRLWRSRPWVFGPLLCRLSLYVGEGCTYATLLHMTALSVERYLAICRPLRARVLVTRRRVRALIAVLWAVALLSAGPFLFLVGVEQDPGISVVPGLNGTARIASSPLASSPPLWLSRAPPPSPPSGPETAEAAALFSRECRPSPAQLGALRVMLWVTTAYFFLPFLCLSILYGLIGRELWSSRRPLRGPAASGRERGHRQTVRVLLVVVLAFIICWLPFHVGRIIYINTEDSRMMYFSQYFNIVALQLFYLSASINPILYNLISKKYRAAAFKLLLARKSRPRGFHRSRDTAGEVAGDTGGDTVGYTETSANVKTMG
Sequence of 5'-AMP-activated protein kinase catalytic subunit alpha-2 (Homo sapiens) (P54646 whole entry, looked up): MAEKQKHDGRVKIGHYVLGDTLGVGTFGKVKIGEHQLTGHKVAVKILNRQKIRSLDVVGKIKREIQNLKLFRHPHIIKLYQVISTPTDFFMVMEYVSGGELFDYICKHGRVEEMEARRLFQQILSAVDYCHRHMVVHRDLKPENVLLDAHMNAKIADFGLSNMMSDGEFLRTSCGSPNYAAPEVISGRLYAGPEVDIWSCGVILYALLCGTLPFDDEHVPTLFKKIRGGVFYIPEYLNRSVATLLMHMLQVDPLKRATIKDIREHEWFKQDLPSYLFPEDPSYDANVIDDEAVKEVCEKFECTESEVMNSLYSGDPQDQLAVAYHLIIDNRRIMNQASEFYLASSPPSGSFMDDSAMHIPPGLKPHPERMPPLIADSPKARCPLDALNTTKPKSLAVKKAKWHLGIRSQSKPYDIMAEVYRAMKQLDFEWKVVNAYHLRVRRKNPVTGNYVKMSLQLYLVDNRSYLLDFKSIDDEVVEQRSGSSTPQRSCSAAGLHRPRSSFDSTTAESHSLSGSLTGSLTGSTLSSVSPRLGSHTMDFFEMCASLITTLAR

SMILES: Cc1cc([C@@H](C)Nc2ccccc2C(=O)O)c2nc(N3CCOCC3)cc(=O)n2c1 [AZD-6482]
- % of control [1]: 89%

SMILES: CC(=O)Nc1cccc(-n2c(=O)n(C3CC3)c(=O)c3c(Nc4ccc(I)cc4F)n(C)c(=O)c(C)c32)c1
- % of control [2]: 99%

SMILES: COc1cc(Nc2nc(C)cc(-c3cnn4nc(OC)ccc34)n2)cc(C(F)(F)F)c1
- % of control [3]: 95%

SMILES: CCC(=O)N1CC[C@H](Nc2ncnc3c2CN(c2cnc(OC)c(C(F)(F)F)c2)CC3)C1 [LENIOLISIB]
- IC50 [4]: > 30 µM

SMILES: Cn1cc(-n2cnc3c(NCc4nc5cc(Cl)c(Cl)cc5[nH]4)nc(N4CCOCC4)nc32)cn1
- % of control [5]: -1.53%

SMILES: COc1cc(N(C)c2ccnc3ccc(C(F)(F)F)cc23)cc(OC)c1OC
- % binding [6]: 100%

SMILES: Nc1cnc(N2CCc3cc(S(=O)(=O)Nc4c(F)cc(Cl)cc4F)cc(N4CCCC4=O)c32)nc1 [TP-020n]
- % of control [7]: 99%
- % of control [8]: 100%

SMILES: C=CC(=O)Nc1cccc(C(=O)Nc2ccc(Nc3cc(-c4[nH]c(SC)nc4C)ccn3)cc2)c1
- % of control ([9]; at 1 µM): 90%
- % of control ([9]; at 5 µM): 61%

SMILES: O[C@H]1CC[C@H](Nc2ncc3nc(Nc4c(F)cc(F)cc4F)n([C@H]4CCOC4)c3n2)CC1
- % of control [10]: 93%
- % of control [11]: 100%

SMILES: CNC(=O)Nc1ccc(-c2nc(N3CC4CCC(C3)O4)c3cnn(C4CCC5(CC4)OCCO5)c3n2)cc1
- % of inhibition [12]: 2%
- % of inhibition [13]: 4%

SMILES: O=C(NOC[C@H](O)CO)c1ccc(F)c(F)c1Nc1ccc(I)cc1F
- % of control [14]: 46%
- % of control [15]: 83%
- % of control [16]: 80%
